Measured values taken from patent US11141413B2, “Method of treating renal cell carcinoma using N-(4-(6,7-dimethoxyquinolin-4-yloxy)phenyl)-N′-(4-fluorophenyl)cyclopropane-1,1-dicarboxamide, (2S)-hydroxybutanedioate” (Exelixis, Inc., priority 2016, dated 2021).

Tested on: patients with advanced renal cell carcinoma
Conditions: in vivo
Protocol: Treatment modifications, including interruptions and dose reductions, were allowed to manage adverse events. […] Patients were allowed to continue study treatment beyond radiographic progression at the discretion of the investigator. On-study crossover between treatment groups was not permitted. Safety evaluations, including physical examination, vital signs, and laboratory assessments, were conducted every 2 weeks for the first 8 weeks and then every 4 weeks thereafter. ECG assessments were performed every 4 weeks for the first 8 weeks and then every 12 weeks. A safety follow-up visit was scheduled 30 days after treatment discontinuation. Adverse events were assessed by investigators and graded according to CTCAE version 4.0.
Safety analyses were limited to patients who received any amount of study treatment.

CO[C@H]1C[C@@H]2CC[C@@H](C)[C@@](O)(O2)C(=O)C(=O)N2CCCC[C@H]2C(=O)O[C@H]([C@H](C)C[C@@H]2CC[C@@H](OCCO)[C@H](OC)C2)CC(=O)[C@H](C)/C=C(\C)[C@@H](O)[C@@H](OC)C(=O)[C@H](C)C[C@H](C)/C=C/C=C/C=C/1C [everolimus]
ALP increased, All Grades (human): 29%
ALP increased, Grade 3-4 (human): 1%
ALT increased, All Grades (human): 32%
ALT increased, Grade 3-4 (human): <1%
AST increased, All Grades (human): 40%
AST increased, Grade 3-4 (human): <1%
Abdominal pain, All Grades (human): 13%
Abdominal pain, Grade 1-2 (human): 27 (8) n (%)
Abdominal pain, Grade 3 (human): 5 (2) n (%)
Abdominal pain, Grade 3-4 (human): 2%
Abdominal pain, Grade 4 (human): 0 n (%)
Absolute neutrophil count decreased, All Grades (human): 17%
Absolute neutrophil count decreased, Grade 3-4 (human): <1%
Adverse reactions led to study treatment being held (human): 59%
Adverse reactions led to study treatment discontinuation (human): 10%
Alanine aminotransferase increased, Grade 1-2 (human): 20 (6) n (%)
Alanine aminotransferase increased, Grade 3 (human): 1 (<1) n (%)
Alanine aminotransferase increased, Grade 4 (human): 0 n (%)
Anemia, All Grades (human): 38%
Anemia, Grade 1-2 (human): 73 (23) n (%)
Anemia, Grade 3 (human): 53 (17) n (%)
Anemia, Grade 3-4 (human): 16%
Anemia, Grade 4 (human): 0 n (%)
Anemia, all grades (human): 126 (39%) n (%)
Anemia, grade 3 or 4 (human): 53 [17%] n [%]
Any AE, Grade 1-2 (human): 103 (32) n (%)
Any AE, Grade 3 (human): 167 (52) n (%)
Any AE, Grade 4 (human): 26 (8) n (%)
Arthralgia, All Grades (human): 14%
Arthralgia, Grade 1-2 (human): 46 (14) n (%)
Arthralgia, Grade 3 (human): 4 (1) n (%)
Arthralgia, Grade 3-4 (human): 1%
Arthralgia, Grade 4 (human): 0 n (%)
Aspartate aminotransferase increased, Grade 1-2 (human): 19 (6) n (%)
Aspartate aminotransferase increased, Grade 3 (human): 1 (<1) n (%)
Aspartate aminotransferase increased, Grade 4 (human): 0 n (%)
Asthenia, All Grades (human): 16%
Asthenia, Grade 1-2 (human): 46 (14) n (%)
Asthenia, Grade 3 (human): 8 (3) n (%)
Asthenia, Grade 3-4 (human): 2%
Asthenia, Grade 4 (human): 0 n (%)
Back pain, Grade 1-2 (human): 41 (13) n (%)
Back pain, Grade 3 (human): 7 (2) n (%)
Back pain, Grade 4 (human): 0 n (%)
Blood creatinine increased, Grade 1-2 (human): 39 (12) n (%)
Blood creatinine increased, Grade 3 (human): 0 n (%)
Blood creatinine increased, Grade 4 (human): 0 n (%)
Constipation, All Grades (human): 19%
Constipation, Grade 1-2 (human): 64 (20) n (%)
Constipation, Grade 3 (human): 1 (<1) n (%)
Constipation, Grade 3-4 (human): <1%
Constipation, Grade 4 (human): 0 n (%)
Cough, All Grades (human): 33%
Cough, Grade 1-2 (human): 107 (33) n (%)
Cough, Grade 3 (human): 3 (<1) n (%)
Cough, Grade 3-4 (human): <1%
Cough, Grade 4 (human): 0 n (%)
Creatinine increased, All Grades (human): 71%
Creatinine increased, Grade 3-4 (human): 0%
Decreased appetite, All Grades (human): 34%
Decreased appetite, Grade 1-2 (human): 111 (35) n (%)
Decreased appetite, Grade 3 (human): 3 (<1) n (%)
Decreased appetite, Grade 3-4 (human): <1%
Decreased appetite, Grade 4 (human): 0 n (%)
Decreased appetite, all grades (human): 114 (3-5%) n (%)
Diarrhea, All Grades (human): 28%
Diarrhea, Grade 1-2 (human): 85 (26) n (%)
Diarrhea, Grade 3 (human): 7 (2) n (%)
Diarrhea, Grade 3-4 (human): 2%
Diarrhea, Grade 4 (human): 0 n (%)
Discontinuation due to a primary reason of AE (excluding disease progression) (human): 10%
Dizziness, All Grades (human): 7%
Dizziness, Grade 1-2 (human): 21 (7) n (%)
Dizziness, Grade 3 (human): 0 n (%)
Dizziness, Grade 3-4 (human): 0%
Dizziness, Grade 4 (human): 0 n (%)
Dry skin, All Grades (human): 10%
Dry skin, Grade 1-2 (human): 35 (11) n (%)
Dry skin, Grade 3 (human): 0 n (%)
Dry skin, Grade 3-4 (human): 0%
Dry skin, Grade 4 (human): 0 n (%)
Dysgeusia, All Grades (human): 9%
Dysgeusia, Grade 1-2 (human): 30 (9) n (%)
Dysgeusia, Grade 3 (human): 0 n (%)
Dysgeusia, Grade 3-4 (human): 0%
Dysgeusia, Grade 4 (human): 0 n (%)
Dyspepsia, All Grades (human): 5%
Dyspepsia, Grade 1-2 (human): 15 (5) n (%)
Dyspepsia, Grade 3 (human): 0 n (%)
Dyspepsia, Grade 3-4 (human): 0%
Dyspepsia, Grade 4 (human): 0 n (%)
Dysphonia, All Grades (human): 4%
Dysphonia, Grade 1-2 (human): 16 (5) n (%)
Dysphonia, Grade 3 (human): 0 n (%)
Dysphonia, Grade 3-4 (human): 0%
Dysphonia, Grade 4 (human): 0 n (%)
Dyspnea, All Grades (human): 29%
Dyspnea, Grade 3-4 (human): 4%
Dyspnoea, Grade 1-2 (human): 82 (26) n (%)
Dyspnoea, Grade 3 (human): 11 (3) n (%)
Dyspnoea, Grade 4 (human): 3 (<1) n (%)
Edema peripheral, Grade 1-2 (human): 70 (22) n (%)
Edema peripheral, Grade 3 (human): 6 (2) n (%)
Edema peripheral, Grade 4 (human): 0 n (%)
Epistaxis, Grade 1-2 (human): 46 (14) n (%)
Epistaxis, Grade 3 (human): 0 n (%)
Epistaxis, Grade 4 (human): 0 n (%)
Events of arterial thromboembolism (human): 0.3%
Fatigue, All Grades (human): 47%
Fatigue, Grade 1-2 (human): 130 (40) n (%)
Fatigue, Grade 3 (human): 24 (8) n (%)
Fatigue, Grade 3-4 (human): 7%
Fatigue, Grade 4 (human): 0 n (%)
Fatigue, all grades (human): 154 (48%) n (%)
Fatigue, grade 3 or 4 (human): 24 [7%] n [%]
Fistulas (human): 0%
Flatulence, Grade 1-2 (human): 7 (2) n (%)
Flatulence, Grade 3 (human): 0 n (%)
Flatulence, Grade 4 (human): 0 n (%)
GGT increased, All Grades (human): 43%
GGT increased, Grade 3-4 (human): 9%
Gastrointestinal (GI) perforations (human): 0.6%
Grade 3 and 4 adverse events: Diarrhea, % (human): 3%
Grade 3 or 4 Adverse Events: Diarrhea, % (human): (3) %
Grade 3 or 4 Adverse Events: Hypokalaemia, % (human): (2) %
Grade 3 or 4 Adverse Events: PPES, % (human): (1) %
Grade 3 or 4 adverse events (human): 193 (60%) n (%)
Grade 5 adverse events regardless of causality (human): 7.8%
Headache, All Grades (human): 12%
Headache, Grade 1-2 (human): 42 (13) n (%)
Headache, Grade 3 (human): 1 (<1) n (%)
Headache, Grade 3-4 (human): <1%
Headache, Grade 4 (human): 0 n (%)
Hemoglobin decreased, All Grades (human): 71%
Hemoglobin decreased, Grade 3-4 (human): 17%
Hyperglycemia, All Grades (human): 59%
Hyperglycemia, Grade 1-2 (human): 46 (14) n (%)
Hyperglycemia, Grade 3 (human): 16 (5) n (%)
Hyperglycemia, Grade 3-4 (human): 8%
Hyperglycemia, Grade 4 (human): 0 n (%)
Hyperglycemia, grade 3 or 4 (human): 16 [5%] n [%]
Hypertension, All Grades (human): 8%
Hypertension, Grade 1-2 (human): 14 (4) n (%)
Hypertension, Grade 3 (human): 12 (4) n (%)
Hypertension, Grade 3-4 (human): 3%
Hypertension, Grade 4 (human): 0 n (%)
Hypertriglyceridemia, Grade 1-2 (human): 31 (10) n (%)
Hypertriglyceridemia, Grade 3 (human): 7 (2) n (%)
Hypertriglyceridemia, Grade 4 (human): 3 (<1) n (%)
Hypoalbuminemia, All Grades (human): 28%
Hypoalbuminemia, Grade 3-4 (human): <1%
Hypomagnesaemia, Grade 1-2 (human): 5 (2) n (%)
Hypomagnesaemia, Grade 3 (human): 0 n (%)
Hypomagnesaemia, Grade 4 (human): 0 n (%)
Hypomagnesemia, All Grades (human): 4%
Hypomagnesemia, Grade 3-4 (human): <1%
Hyponatremia, All Grades (human): 26%
Hyponatremia, Grade 3-4 (human): 6%
Hypophosphatemia, All Grades (human): 36%
Hypophosphatemia, Grade 3-4 (human): 5%
Hypothyroidism, All Grades (human): <1%
Hypothyroidism, Grade 1-2 (human): 1 (<1) n (%)
Hypothyroidism, Grade 3 (human): 1 (<1) n (%)
Hypothyroidism, Grade 3-4 (human): <1%
Hypothyroidism, Grade 4 (human): 0 n (%)
Incidence of Grade ≥3 hemorrhagic events (human): 1.6%
Insomnia, Grade 1-2 (human): 33 (10) n (%)
Insomnia, Grade 3 (human): 1 (<1) n (%)
Insomnia, Grade 4 (human): 0 n (%)
Lymphocytes decreased, All Grades (human): 39%
Lymphocytes decreased, Grade 3-4 (human): 12%
Mucosal inflammation, All Grades (human): 23%
Mucosal inflammation, Grade 1-2 (human): 64 (20) n (%)
Mucosal inflammation, Grade 3 (human): 10 (3) n (%)
Mucosal inflammation, Grade 3-4 (human): 3%
Mucosal inflammation, Grade 4 (human): 1 (<1) n (%)
Muscle spasms, All Grades (human): 5%
Muscle spasms, Grade 1-2 (human): 17 (5) n (%)
Muscle spasms, Grade 3 (human): 0 n (%)
Muscle spasms, Grade 3-4 (human): 0%
Muscle spasms, Grade 4 (human): 0 n (%)
Nausea, All Grades (human): 28%
Nausea, Grade 1-2 (human): 92 (29) n (%)
Nausea, Grade 3 (human): 1 (<1) n (%)
Nausea, Grade 3-4 (human): <1%
Nausea, Grade 4 (human): 0 n (%)
Overall incidence of adverse events regardless of causality (human): > 99%
Pain in extremity, All Grades (human): 8%
Pain in extremity, Grade 1-2 (human): 31 (10) n (%)
Pain in extremity, Grade 3 (human): 1 (<1) n (%)
Pain in extremity, Grade 3-4 (human): <1%
Pain in extremity, Grade 4 (human): 0 n (%)
Palmar-plantar erythrodysaesthesia syndrome, Grade 1-2 (human): 16 (5) n (%)
Palmar-plantar erythrodysaesthesia syndrome, Grade 3 (human): 3 (<1) n (%)
Palmar-plantar erythrodysaesthesia syndrome, Grade 4 (human): 0 n (%)
Palmar-plantar erythrodysesthesia syndrome, All Grades (human): 6%
Palmar-plantar erythrodysesthesia syndrome, Grade 3-4 (human): <1%
Patients with dose reduced (human): 24%
Patients with dose reductions (human): 25%
Platelets decreased, All Grades (human): 27%
Platelets decreased, Grade 3-4 (human): <1%
Proteinuria, All Grades (human): 9%
Proteinuria, Grade 1-2 (human): 28 (9) n (%)
Proteinuria, Grade 3 (human): 2 (<1) n (%)
Proteinuria, Grade 3-4 (human): <1%
Proteinuria, Grade 4 (human): 0 n (%)
Pruritus, Grade 1-2 (human): 48 (15) n (%)
Pruritus, Grade 3 (human): 1 (<1) n (%)
Pruritus, Grade 4 (human): 0 n (%)
Pulmonary embolism (human): 0.3%
Pyrexia, Grade 1-2 (human): 57 (18) n (%)
Pyrexia, Grade 3 (human): 2 (<1) n (%)
Pyrexia, Grade 4 (human): 0 n (%)
Rash, All Grades (human): 43%
Rash, Grade 1-2 (human): 92 (29) n (%)
Rash, Grade 3 (human): 2 (<1) n (%)
Rash, Grade 3-4 (human): <1%
Rash, Grade 4 (human): 0 n (%)
Serious adverse events ≥grade 3 (human): 129 (40%) n (%)
Stomatitis, All Grades (human): 24%
Stomatitis, Grade 1-2 (human): 71 (22) n (%)
Stomatitis, Grade 3 (human): 7 (2) n (%)
Stomatitis, Grade 3-4 (human): 2%
Stomatitis, Grade 4 (human): 0 n (%)
Study treatment discontinuation due to diarrhea (human): 0.9%
Treatment discontinuation due to an adverse event not related to disease progression (human): 10%
Treatment-emergent hypertension (human): 7.1%
Treatment-emergent hypertension, Grade ≥3 (human): 3.1%
Triglycerides increased, All Grades (human): 73%
Triglycerides increased, Grade 3-4 (human): 13%
Venous thromboembolism (human): 2.5%
Vomiting, All Grades (human): 14%
Vomiting, Grade 1-2 (human): 44 (14) n (%)
Vomiting, Grade 3 (human): 3 (<1) n (%)
Vomiting, Grade 3-4 (human): <1%
Vomiting, Grade 4 (human): 0 n (%)
Weight decreased, All Grades (human): 12%
Weight decreased, Grade 1-2 (human): 42(13) n (%)
Weight decreased, Grade 3 (human): 0 n (%)
Weight decreased, Grade 3-4 (human): 0%
Weight decreased, Grade 4 (human): 0 n (%)
White blood cells decreased, All Grades (human): 31%
White blood cells decreased, Grade 3-4 (human): <1%
Grade 5 adverse events assessed as treatment-related: two
